Assay results as given in patent US20250339391A1, “METHODS FOR EFFECTIVE MANAGEMENT OF PAIN” (South Rampart Pharma, Inc., priority 2024, published 2025).

Test system: Sprague-Dawley rats
Assay: 5-day repeat-dose oral toxicity and toxicokinetics in Sprague-Dawley rats (non-GLP)
Type: in vivo, rat
Method: 4) A Dose-Range-Finding Oral Toxicity Study with SRP-001 in Sprague-Dawley Rats (Non-GLP) As part of a two-phase study, repeat-dose toxicity and toxicokinetics of SRP-001, when administered via oral gavage once daily to Sprague-Dawley rats for 5 d, was done (Calvert Labs/Altasciences, Scott Township, PA USA). The doses selected for Phase II were based on the results of Phase I. SRP-001 was administered to 20 naïve rats (5/group in Groups 5-8) once daily for 5 days via oral gavage for toxicology evaluation and once to 18 naïve rats (6/group in Groups 9-11) for toxicokinetic evaluation.
Mortality/morbidity was performed twice daily and once prior to sacrifice. Clinical observations were evaluated prior to each dose administration and approximately 1-3 h post-dose for animals in Groups 5-8. Body weights were recorded prior to randomization/selection, prior to dose administration on day 1 for animals in Groups 5-11, and prior to dose administration on day 5 for Groups 5-8. Food consumption was recorded for animals from Groups 5-8 on day 5. Blood for evaluation of hematology, coagulation and clinical chemistry and urine for urinalysis was collected from animals in Groups 5-8 on day 6. All animals in Groups 5-8 were sacrificed on […]. Selected tissues were harvested at necropsy, selected organs weighed, and selected tissues preserved. Blood for toxicokinetic evaluation was collected from animals in Groups 9-11 at selected timepoints on day 1 to ensure comprehensive data capture. These timepoints include 0 hour (pre-dose) and post-dose intervals of 1, 2, 4, 8, and 24 hours on both Day 1 and […] of the study. This schedule allows for a robust assessment of SRP-001's pharmacokinetic profile, including absorption, distribution, metabolism, and excretion and is in line with current FDA-guidelines for GLP studies.

CCN(CC)C(=O)c1ccccc1S(=O)(=O)NCC(=O)Nc1ccc(O)cc1 [SRP-001, N,N-diethyl-2-[[2-(4-hydroxyanilino)-2-oxo-ethyl]sulfamoyl]benzamide]
liver weights and cholesterol (5 days oral gavage): increases in absolute and relative liver weights and increased cholesterol levels
tolerated dose (Sprague-Dawley, rat, in vivo, 5 d): 1200 mg/kg
AUC and Cmax levels (day 1 toxicokinetics): increased in a dose-dependent manner
half-life (high dose): 6.86 h
Tmax (low dose): 3 h
Tmax (mid and high doses): 4.5 h
half-life (mid dose): 6.19 h
